Data taken from patent US20230293629A1, “METHODS FOR ATTENUATING RELEASE OF INFLAMMATORY MEDIATORS AND PEPTIDES USEFUL THEREIN” (BIOMARCK PHARMACEUTICALS LTD., priority 2006, published 2023).
Where a SMILES comes first, the peptide text is derived from it. Where no end group is shown, it is not given here. The star is where a group is joined. Myristoyl = CCCCCCCCCCCCCC(=O)*

Legend:
HL-60 clone 15 cells = test: PMA-stimulated EPO release from HL-60 clone 15 cells; format: cell-based, human; settings: 50 μM test peptide, two hour incubation with 100 nM PMA; HL-60 clone 15 cells
Description: (§1) Three types of human leukocyte cell lines, specifically the promyelocytic cell line HL-60 clone 15, the monocytic cell line U937, and the lymphocyte natural killer cell line NK-92 were purchased from American Type Culture Collection (ATCC; Rockville, MD). HL-60 clone 15 cells (ATCC CRL-1964) were maintained in medium consisting of RPMI 1640 with L-glutamine supplemented with 10% heat-inactivated fetal bovine serum (Gibco; Invitrogen Co., Carlsbad, CA), 50 IU/ml penicillin, 50 μg/mL streptomycin, and 25 mM HEPES buffer, pH 7.8, at 37° C. in an atmosphere containing 5% CO2. Final differentiation to an eosinophil-like phenotype was initiated by culturing cells at 5×10^5 cells/ml in the above medium containing 0.5 mM butyric acid (Sigma-Aldrich Co.) for 5 days as previously described (Tiffany H L, Li F, Rosenberg H F. Hyperglycosylation of eosinophil ribonucleases in a promyelocytic leukemia cell line and in differentiated peripheral blood progenitor cells. J Leukoc Biol 1995; 58:49-54; Tiffany H L, Alkhatib G, Combadiere C, Berger E A, Murphy P M. CC chemokine receptors 1 and 3 are differentially regulated by IL-5 during maturation of eosinophilic HL-60 cells. J Immunol 1998; 160:1385-1392). U937 cells (ATCC CRL-1593.2) were grown at 37° C. in an atmosphere of 5% CO2 in complete medium consisting of RPMI 1640 with L-glutamine supplemented with 10% FBS, 50 IU/ml penicillin, and 50 μg/mL streptomycin. NK-92 cells (ATCC CRL-2407) were maintained in alpha-MEM medium (Sigma-Aldrich Co.) supplemented with 20% FBS, 100 U/ml of interleukin-2 (IL-2) (Chemicon International, Inc., Temecula, CA), 5×10^−5 M of 2-mercaptoethanol, 50 IU/mL penicillin, and 50 μg/ml streptomycin at 37° C. in an atmosphere containing 5% CO2. Cell morphology was judged by assessment of Wright-Giemsa-stained cells. Viability of cells harvested for experiments was assessed by trypan blue exclusion and populations of cells with viability >95% were used.
(§2) HL-60 clone 15, U937, and NK-92 cells were washed and resuspended at 2.5×10^6 cells/ml in phenol red-free RPMI-1640 (Cellgro; Mediatech, Inc.) for all degranulation assays. Aliquots of cells in 15 ml tubes were preincubated with indicated concentrations of MANS, RNS, or a test peptide for 10 min at 37° C. The cells then were stimulated with PMA for up to 2 hr. A control reference (PMA control reference) was established for each cell type using HL-60 clone 15, U937, and NK-92 cells, respectively, which were washed and resuspended at 2.5×10^6 cells/ml in phenol red-free RPMI-1640 and stimulated with PMA but in the absence of MANS, RNS, or a test peptide for the same time periods. The reaction was terminated by placing tubes on ice and centrifuging cells at 400 g for 5 min at 4° C.
(§3) For measurements of released MPO from neutrophils and released lysozyme from U937 cells, we were able to quantify secretion by using as standards human MPO and egg white […], respectively. For released EPO from HL-60 clone 15 cells and for released granzyme from NK-92 cells, no standards were available to use for quantification. […] To measure intracellular EPO in HL-60 clone 15 cells and intracellular granzyme in NK-92 cells, appropriate aliquots of 0.1% triton X-100-lysed cells were taken for quantification of intracellular granule proteins as described below. All treatments were expressed as percentage of control to minimize variability between cultures.
EPO activity released by HL-60 clone 15 cells was assayed using TMB according to a previously established technique (Lacy P, Mahmudi-Azer S, Bablitz B, Hagen S C, Velazquez J R, Man S F, Moqbel R. Rapid mobilization of intracellularly stored RANTES in response to interferon-gamma in human eosinophils. Blood 1999; 94:23-32). Thus, 100 μL of TMB substrate solution was added to 50 μL=microliters) of sample in a 96-well microplate and incubated at room temperature for 15 min (min=minutes). […]

U937 cells = test: PMA-stimulated lysozyme secretion by U937 cells; format: cell-based, human; settings: 50 μM test peptide, two hour incubation with 100 nM PMA; U937 cells
Description: as §1, §2, §3
Lysozyme secreted by U937 cells was measured using a spectrophotometric assay as described previously (Balboa M A, Saez Y, Balsinde J. Calcium-independent phospholipase A2 is required for lysozyme secretion in U937 promonocytes. J Immunol 2003; 170:5276-5280) with slight modification. Thus, 100 μL of sample was mixed with 100 μL of a Micrococcus lysodeikticus (Sigma-Aldrich Co.) suspension (0.3 mg/ml in 0.1 M sodium phosphate buffer, pH 7.0) in a 96-well microplate. The decrease in absorbance at 450 nm was measured at room temperature. […]

[1] = Qualitative solubility of peptides in 0.5 N saline, pH 6.5

Compound | % Inhibition EPO (HL-60 clone 15 cells) [%] | % Inhibition Lysozyme (U937 cells) [%] | solubility [1] [mg/mL]
CCCCCCCCCCCCCC(=O)NCC(=O)N[C@@H](C)C(=O)N[C@@H](CCC(N)=O)C(=O)N[C@@H](Cc1ccccc1)C(=O)N[C@@H](CO)C(=O)N[C@@H](CCCCN)C(=O)N[C@H](C(=O)N[C@@H](C)C(=O)N[C@@H](C)C(=O)N[C@@H](CCCCN)C(=O)NCC(=O)N[C@@H](CCC(=O)O)C(=O)N[C@@H](C)C(=O)N[C@@H](C)C(=O)N[C@@H](C)C(=O)N[C@@H](CCC(=O)O)C(=O)N[C@@H](CCCNC(=N)N)C(=O)N1CCC[C@H]1C(=O)NCC(=O)N[C@@H](CCC(=O)O)C(=O)O)[C@@H](C)O (Myristoyl-GAQFSKTAAKGEAAAERPGE-OH; C-terminus assumed) | 33.6 | 99 | 
CCCCCCCCCCCCCC(=O)N[C@@H](CO)C(=O)N[C@@H](CCCCN)C(=O)N[C@H](C(=O)N[C@@H](C)C(=O)N[C@@H](C)C(=O)N[C@@H](CCCCN)C(=O)NCC(=O)N[C@@H](CCC(=O)O)C(=O)N[C@@H](C)C(=O)N[C@@H](C)C(=O)N[C@@H](C)C(=O)N[C@@H](CCC(=O)O)C(=O)N[C@@H](CCCNC(=N)N)C(=O)N1CCC[C@H]1C(=O)NCC(=O)N[C@@H](CCC(=O)O)C(=O)N[C@@H](C)C(=O)N[C@@H](C)C(=O)N[C@H](C(=O)N[C@@H](C)C(=O)O)C(C)C)[C@@H](C)O (Myristoyl-SKTAAKGEAAAERPGEAAVA-OH; C-terminus assumed) | 0 | 99 | > 80
CC(=O)N[C@@H](C)C(=O)N[C@@H](C)C(=O)NCC(=O)N[C@@H](CCC(=O)O)C(=O)O [Ac-AAGE, AAGE] (Ac-AAGE-OH; C-terminus assumed) | 39.1 | 36.9 | > 200
CC(=O)N[C@@H](C)C(=O)N[C@@H](CCCCN)C(=O)NCC(=O)N[C@@H](CCC(=O)O)C(=O)O [Ac-AKGE, AKGE] (Ac-AKGE-OH; C-terminus assumed) | 87.6 | 7.2 | > 200
CC(=O)N[C@@H](C)C(=O)N[C@@H](CCCCN)C(=O)NCC(=O)N[C@@H](CCC(=O)O)C(N)=O [Ac-AKGE-NH2, AKGE] (Ac-AKGE-NH2) | 45.6 | 26.8 | > 200
CCCCCCCCCCCCCC(=O)N[C@@H](C)C(=O)N[C@@H](C)C(=O)N[C@@H](C)C(=O)N[C@@H](CCC(=O)O)C(=O)N[C@@H](CCCNC(=N)N)C(=O)N1CCC[C@H]1C(=O)NCC(=O)N[C@@H](CCC(=O)O)C(=O)N[C@@H](C)C(=O)N[C@@H](C)C(=O)N[C@H](C(=O)N[C@@H](C)C(=O)O)C(C)C [MA-AAAERPGEAAVA, AAAERPGEAAVA] (Myristoyl-AAAERPGEAAVA-OH; C-terminus assumed) | 21.6 | 98 | < 20
CCCCCCCCCCCCCC(=O)N[C@@H](C)C(=O)N[C@@H](C)C(=O)N[C@@H](CCCCN)C(=O)NCC(=O)N[C@@H](CCC(=O)O)C(=O)N[C@@H](C)C(=O)O [MA-AAKGEA, AAKGEA] (Myristoyl-AAKGEA-OH; C-terminus assumed) | 31.4 | 28.6 | < 1
CCCCCCCCCCCCCC(=O)N[C@@H](C)C(=O)N[C@@H](CCCCN)C(=O)NCC(=O)N[C@@H](CCC(=O)O)C(=O)O [MA-AKGE, AKGE] (Myristoyl-AKGE-OH; C-terminus assumed) | 0 | 28.6 | < 1
CCCCCCCCCCCCCC(=O)N[C@@H](C)C(=O)N[C@@H](CCCCN)C(=O)NCC(=O)N[C@@H](CCC(=O)O)C(=O)N[C@@H](C)C(=O)N[C@@H](C)C(=O)N[C@@H](C)C(=O)N[C@@H](CCC(=O)O)C(=O)N[C@@H](CCCNC(=N)N)C(=O)N1CCC[C@H]1C(=O)NCC(=O)N[C@@H](CCC(=O)O)C(=O)N[C@@H](C)C(=O)N[C@@H](C)C(=O)N[C@H](C(=O)N[C@@H](C)C(=O)O)C(C)C [MA-AKGEAAAERPGEAAVA, AKGEAAAERPGEAAVA] (Myristoyl-AKGEAAAERPGEAAVA-OH; C-terminus assumed) | 18.1 | 98 | > 80
CCCCCCCCCCCCCC(=O)NCC(=O)N[C@@H](C)C(=O)N[C@@H](CCC(N)=O)C(=O)N[C@@H](Cc1ccccc1)C(=O)N[C@@H](CO)C(=O)N[C@@H](CCCCN)C(=O)N[C@H](C(=O)N[C@@H](C)C(=O)N[C@@H](C)C(=O)N[C@@H](CCCCN)C(=O)O)[C@@H](C)O [MA-GAQFSKTAAK, GAQFSKTAAK] (Myristoyl-GAQFSKTAAK-OH; C-terminus assumed) | 37.4 | 56.6 | > 10
CCCCCCCCCCCCCC(=O)NCC(=O)N[C@@H](C)C(=O)N[C@@H](CCC(N)=O)C(=O)N[C@@H](Cc1ccccc1)C(=O)N[C@@H](CO)C(=O)N[C@@H](CCCCN)C(=O)N[C@H](C(=O)N[C@@H](C)C(=O)N[C@@H](C)C(=O)N[C@@H](CCCCN)C(=O)NCC(=O)N[C@@H](CCC(=O)O)C(=O)N[C@@H](C)C(=O)N[C@@H](C)C(=O)N[C@@H](C)C(=O)N[C@@H](CCC(=O)O)C(=O)O)[C@@H](C)O [MA-GAQFSKTAAKGEAAAE, GAQFSKTAAKGEAAAE] (Myristoyl-GAQFSKTAAKGEAAAE-OH; C-terminus assumed) | 30.3 | 99 | > 2
CCCCCCCCCCCCCC(=O)N[C@@H](CCCNC(=N)N)C(=O)N1CCC[C@H]1C(=O)NCC(=O)N[C@@H](CCC(=O)O)C(=O)N[C@@H](C)C(=O)N[C@@H](C)C(=O)N[C@H](C(=O)N[C@@H](C)C(=O)O)C(C)C [MA-RPGEAAVA, RPGEAAVA] (Myristoyl-RPGEAAVA-OH; C-terminus assumed) | 0 | 99 | 
CCCCCCCCCCCCCC(=O)N[C@H](C(=O)N[C@@H](C)C(=O)N[C@@H](C)C(=O)N[C@@H](CCCCN)C(=O)NCC(=O)N[C@@H](CCC(=O)O)C(=O)N[C@@H](C)C(=O)N[C@@H](C)C(=O)O)[C@@H](C)O [MA-TAAKGEAA, TAAKGEAA] (Myristoyl-TAAKGEAA-OH; C-terminus assumed) | 0 | 80.2 | < 1
Ac-AAAERPGEAAVA [Ac-AAAERPGEAAVA, AAAERPGEAAVA] | 51.2 | 29.5 | 
Ac-AAKGEA [Ac-AAKGEA, AAKGEA] | 10.6 | 9.2 | > 150
Ac-AKGEAAAERPGEAAVA [Ac-AKGEAAAERPGEAAVA, AKGEAAAERPGEAAVA] | 72.3 | 34.3 | 
Ac-GAQFSKTAAKGEAAAE [Ac-GAQFSKTAAKGEAAAE, GAQFSKTAAKGEAAAE] | 56.6 | 8.4 | 
Ac-GAQFSKTAAKGEAAAERPGE | 48.8 | 0.0 | 
Ac-RPGEAAVA [Ac-RPGEAAVA, RPGEAAVA] | 45.8 | 0.0 | 
